Data reported in patent US9493423B2, “Compounds capable of inhibiting voltage gated calcium ion channel, and pharmaceutical compositions comprising the same” (KOREA INSTITUTE OF SCIENCE AND TECHNOLOGY, priority 2015, dated 2016).

Key:
Assay type in all cases: cell-based
[1] = target: T1, α1G T-type calcium ion channel (Homo sapiens, UniProt O43497); assay: Antagonistic activity against T-type calcium ion channel, α1G (FDSS6000 screening / whole cell patch clamp in HEK293 cells); settings: HEK293 cells expressing α1G
T1 construct: host or cells: HEK293 stably expressing α1G and Kir2.1, selected with G-418
Experimental: The novel compounds, represented by Chemical Formula 1, of the present invention were assayed for antagonistic activity against T-type calcium ion channels as follows.
After being synthesized, the compounds were primarily screened for inhibitory activity against T-type channels using a high-throughput screening device FDSS6000, and selection was made of the synthetic compounds that blocked T-type channels at an inhibitory rate of 40% or higher. In a secondary screening process, the selected compounds were examined for the effective inhibitory concentration IC50 by measuring Ca^2+ potentials in human HEK293 cells.
Using Titertek Multidrop Plate Dispenser, HEK293 cell line cells that stably expressed alG T-type calcium ion channel and Kir2.1 (α1G cell line: KCTC 10519BP, Korean Human Gene Bank of the Korea Research Institute of Bioscience and Biotechnology) were seeded at a density of 4×10^4 cells/well into 96-well plates that were treated with poly-L-lysine (0.05 mg/ml) 12˜24 hrs before activity screening. On the day of test, the cells adherent to the 96-well plates were washed three times with a HEPES buffer (150 mM NaCl, 5 mM KCl, 1 mM MgCl2, 2 mM CaCl2, 10 mM HEPES, 10 mM glucose, pH 7.4) using a 96-well plate washer (Bio Tek), and then stained with a fluorescent dye by treatment with a HEPES containing 5 μM fluo-3/AM and 0.001% Pluronic F-127 for 1 hr at room temperature. Again, the cells were washed twice with a HEPES buffer. Ten minutes before reading on FDSS6000, the cells were washed once with a HEPES buffer containing 10 mM CaCl2, and the final volume per well was adjusted to 81 μL. Separately from the 96-well plates in which cells were contained, two 96-well plates were prepared so as to contain KCl (final concentration 75 mM), which activates T-type calcium ion channels, and blocker drugs therein. Since most cell-based HTS devices, although provided with a liquid application system necessary for drug infusion, have no liquid absorption systems, blocker drugs to be searched for and KCl were individually prepared into a 5-fold higher concentration in 27 μL of 10 mM CaCl2 HEPES. The concentration was 1/5 diluted into a final volume of 135 μL in each well before measurement. For the FDSS6000 measurements, cells were pre-incubated with drugs for 75 seconds after the 20-sec baseline recordings, and a change in intracellular calcium concentration induced by KCl was measured. The percent inhibition by a test compound was calculated as integrated values of 340/380 fluorescent ratio of untreated and drug-treated cells.
For accurate calcium-imaging, the light source of 4 xenon lamps in FDSS6000 were irradiated to make the cells exposed selectively to the excitation wavelength (340 nm and 380 nm) by computer-controlled filter wheel. Data was obtained at regular intervals of each 1.23 second. The emitter fluorescence light flew in through a long-pass filter was obtained as an average 340/380 ratio value for each well in the 96-wells by using CCD camera and digital fluorescence analyzer in FDSS6000. All image data and analyses were obtained by using FDSS6000-exclusive program provide from Hamamatsu Photonics.
Dulbecco's modified Eagle's medium (DMEM) supplemented with 10% fetal bovine serum (FBS) and 1% penicillin/streptomycin (v/v) was employed. The cells were cultured at 36.5° C. in a humidified condition of 95% air/5% CO2 in an incubator. The medium was refreshed every 3 or 4 days while the cells were sub-cultured every week, with the growth of only α1G T-type calcium ion channel-expressing cells in the presence of G-418 (0.5 mg/mL). The recording to the cells used in the T-type calcium channel activity analysis was conducted 2-7 days after the cells were culturing on a cover slip coated with poly-L-lysine (0.5 mg/mL) when conducting every sub-culture. For analysis at a single cell level, the T-type calcium channel current was measured by an electrophysiological whole cell patch clamp method using EPC-9 amplifier (HEKA, German). […]

[2] = tested on: HT-1080 (Human Fibroblastoma); assay: SRB (sulforhodamine B) assay of cancer cell growth, HT-1080; design: dose or concentration left out as unconfirmed; settings: 48 hrs incubation
Experimental: (§1) For this assay, the cells at passages were separated from the surfaces of well plates using a trypsin-EDTA solution, and seeded at a density of 5×10^3 cells/well into 96-well plates. After 24 hrs of incubation in a CO2 incubator, the medium was removed. A 4-fold dilution of each of the compounds was added in an amount of 100 μL to each well, and the cells were incubated for 48 hrs. The cells were fixed by adding 100 μL of formalin to each well, washed five times with distilled water, dried at room temperature. The cells in each well were stained with 100 μL of 0.4% SRB for 30 min. at room temperature, washed five times with 1% acetic acid, and dried at room temperature. […] The optical density was read at 540 nm.
(§2) To calculate pharmaceutical efficacy of test compounds in cancer cells, GI50 was calculated according to the following Equation 1 or 2: […]
(§3) (wherein T0 is the number of cells before the addition of a test compound, and T2 is the number of cells after 48 hrs of incubation in the presence of a test compound)
(§4) The inhibition of cancer cell growth by the test compound (% inhibition) was determined by data regression using the Lotus program from the values calculated according to Equation 1, and the IC50 value was calculated from the % inhibition.

U87-MG (Human Glioma) = assay: SRB (sulforhodamine B) assay of cancer cell growth, U87-MG; design: dose or concentration left out as unconfirmed; settings: 48 hrs incubation
Experimental: as §1, §2, §3, §4

[3] = tested on: LNCap (Human Prostate Carcinoma); assay: SRB (sulforhodamine B) assay of cancer cell growth, LNCap; design: dose or concentration left out as unconfirmed; settings: 48 hrs incubation
Experimental: as §1, §2, §3, §4

[4] = tested on: KYSE410 (Human Esophageal Carcinoma); assay: SRB (sulforhodamine B) assay of cancer cell growth, KYSE410; design: dose or concentration left out as unconfirmed; settings: 48 hrs incubation
Experimental: as §1, §2, §3, §4

T1 sequence (O43497 whole entry): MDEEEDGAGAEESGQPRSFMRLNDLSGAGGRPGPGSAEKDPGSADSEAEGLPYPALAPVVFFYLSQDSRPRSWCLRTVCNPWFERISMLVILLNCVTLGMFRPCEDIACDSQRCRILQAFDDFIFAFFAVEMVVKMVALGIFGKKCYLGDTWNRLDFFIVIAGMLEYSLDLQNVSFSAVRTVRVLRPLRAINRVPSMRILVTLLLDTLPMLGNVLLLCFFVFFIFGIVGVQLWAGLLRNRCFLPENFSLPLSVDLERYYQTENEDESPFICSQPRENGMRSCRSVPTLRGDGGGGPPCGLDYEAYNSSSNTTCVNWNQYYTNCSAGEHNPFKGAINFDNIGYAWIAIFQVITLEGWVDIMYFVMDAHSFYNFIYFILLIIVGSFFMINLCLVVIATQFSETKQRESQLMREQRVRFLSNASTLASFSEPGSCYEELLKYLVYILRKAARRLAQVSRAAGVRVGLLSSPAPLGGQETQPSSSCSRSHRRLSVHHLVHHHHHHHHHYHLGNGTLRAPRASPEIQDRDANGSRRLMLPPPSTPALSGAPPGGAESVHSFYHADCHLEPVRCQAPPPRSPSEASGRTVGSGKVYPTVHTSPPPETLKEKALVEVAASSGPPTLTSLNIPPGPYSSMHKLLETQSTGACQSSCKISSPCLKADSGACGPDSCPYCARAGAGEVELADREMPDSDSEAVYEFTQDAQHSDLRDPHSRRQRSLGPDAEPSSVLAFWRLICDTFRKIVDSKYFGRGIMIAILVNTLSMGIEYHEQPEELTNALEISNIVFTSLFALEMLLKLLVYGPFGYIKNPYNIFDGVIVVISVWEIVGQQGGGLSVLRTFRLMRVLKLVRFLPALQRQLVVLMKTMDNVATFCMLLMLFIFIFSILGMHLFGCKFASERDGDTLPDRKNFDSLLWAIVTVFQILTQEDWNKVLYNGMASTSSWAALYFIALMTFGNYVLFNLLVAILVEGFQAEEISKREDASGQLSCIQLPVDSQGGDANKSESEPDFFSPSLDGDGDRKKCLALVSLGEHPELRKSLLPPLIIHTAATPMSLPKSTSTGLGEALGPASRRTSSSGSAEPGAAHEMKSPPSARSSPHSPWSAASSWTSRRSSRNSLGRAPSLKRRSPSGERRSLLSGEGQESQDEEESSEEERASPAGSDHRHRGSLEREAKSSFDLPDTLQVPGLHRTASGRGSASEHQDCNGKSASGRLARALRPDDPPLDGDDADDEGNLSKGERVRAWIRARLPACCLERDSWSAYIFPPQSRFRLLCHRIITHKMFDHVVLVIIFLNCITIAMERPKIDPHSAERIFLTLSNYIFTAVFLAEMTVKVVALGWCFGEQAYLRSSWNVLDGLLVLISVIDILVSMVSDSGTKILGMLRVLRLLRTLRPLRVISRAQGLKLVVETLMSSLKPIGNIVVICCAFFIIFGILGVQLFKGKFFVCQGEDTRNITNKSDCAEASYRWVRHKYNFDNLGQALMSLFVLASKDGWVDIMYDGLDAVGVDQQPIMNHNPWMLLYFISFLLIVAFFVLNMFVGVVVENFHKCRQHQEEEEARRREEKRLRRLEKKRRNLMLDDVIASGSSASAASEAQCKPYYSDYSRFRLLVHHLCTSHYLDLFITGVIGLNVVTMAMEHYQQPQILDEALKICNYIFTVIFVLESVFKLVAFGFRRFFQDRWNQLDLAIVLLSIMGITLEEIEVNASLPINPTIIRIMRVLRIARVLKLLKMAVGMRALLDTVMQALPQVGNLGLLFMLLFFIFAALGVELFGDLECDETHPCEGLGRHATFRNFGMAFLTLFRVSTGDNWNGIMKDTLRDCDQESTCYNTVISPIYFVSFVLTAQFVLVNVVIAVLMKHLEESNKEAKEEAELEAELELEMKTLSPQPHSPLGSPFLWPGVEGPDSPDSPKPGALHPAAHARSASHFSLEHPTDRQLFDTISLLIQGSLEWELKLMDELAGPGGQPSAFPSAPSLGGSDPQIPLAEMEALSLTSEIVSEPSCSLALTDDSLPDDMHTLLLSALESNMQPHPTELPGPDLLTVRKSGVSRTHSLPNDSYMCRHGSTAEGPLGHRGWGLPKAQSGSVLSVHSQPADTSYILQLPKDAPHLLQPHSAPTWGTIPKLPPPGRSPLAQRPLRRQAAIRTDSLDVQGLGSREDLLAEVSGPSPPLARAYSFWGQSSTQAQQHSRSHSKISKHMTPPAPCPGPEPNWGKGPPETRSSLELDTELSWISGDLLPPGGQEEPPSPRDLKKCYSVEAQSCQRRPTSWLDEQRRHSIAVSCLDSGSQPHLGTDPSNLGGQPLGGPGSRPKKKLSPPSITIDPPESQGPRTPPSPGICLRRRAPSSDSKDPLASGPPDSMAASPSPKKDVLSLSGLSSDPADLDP

| inhibition at 10 µM [1] [%] | Compound | also measured |
| --- | --- | --- |
| 61.4 | CC(C)Cc1cc(CNS(=O)(=O)c2ccccc2)nn1-c1ccccc1 [Compound 1, N-[(5-Isobutyl-1-phenyl-1H-pyrazol-3-yl)methyl]benzenesulfonamide] | – |
| 64.1 | CC(C)Cc1cc(CNS(=O)(=O)c2cccc(F)c2)nn1-c1ccccc1 [Compound 2, N-[(5-Isobutyl-1-phenyl-1H-pyrazol-3-yl)methyl]-3-fluorobenzenesulfonamide] | – |
| 57.6 | CC(C)Cc1cc(CNS(=O)(=O)c2cccc(Cl)c2)nn1-c1ccccc1 [Compound 3, N-[(5-Isobutyl-1-phenyl-1H-pyrazol-3-yl)methyl]-3-chlorobenzenesulfonamide] | – |
| 57.3 | Cc1ccc(S(=O)(=O)NCc2cc(CC(C)C)n(-c3ccccc3)n2)cc1 [Compound 4, N-[(5-Isobutyl-1-phenyl-1H-pyrazol-3-yl)methyl]-4-methylbenzenesulfonamide] | – |
| 65.7 | CC(C)Cc1cc(CNS(=O)(=O)Cc2ccccc2)nn1-c1ccccc1 [Compound 7, N-[(5-Isobutyl-1-phenyl-1H-pyrazol-3-yl)methyl]benzylsulfonamide] | – |
| 29.8 | CC(C)Cc1cc(CNS(=O)(=O)c2cccc3cccnc23)nn1-c1ccccc1 [Compound 10, N-[(5-Isobutyl-1-phenyl-1H-pyrazol-3-yl)methyl]quinoline-8-sulfonamide] | – |
| – | Cc1ccc(F)c(S(=O)(=O)NCc2cc(CC(C)C)n(-c3ccccc3)n2)c1 [Compound 11, N-[(5-Isobutyl-1-phenyl-1H-pyrazol-3-yl)methyl]-(2-fluoro-5-methyl)benzenesulfonamide] | Inhibition % α1G (10 μM) [1]: 54.86%; Inhibition % for Cancer Cell HT1080 [2]: 57.56%; Inhibition % for Cancer Cell U87-MG (U87-MG (Human Glioma)): 34.40%; Inhibition % for Cancer Cell LNCap [3]: 71.41%; Inhibition % for Cancer Cell KYSE410 [4]: 47.30% |
| 45.1 | CC(C)Cc1cc(CNS(=O)(=O)c2c(F)cccc2F)nn1-c1ccccc1 [Compound 13, N-[(5-Isobutyl-1-phenyl-1H-pyrazol-3-yl)methyl]-2,6-difluorobenzenesulfonamide] | – |
| 70.5 | Cc1c(CNS(=O)(=O)c2ccccc2)nn(-c2ccccc2)c1CC(C)C [Compound 15, N-[(5-Isobutyl-4-methyl-1-phenyl-1H-pyrazol-3-yl)methyl]benzenesulfonamide] | – |
| 74.2 | Cc1c(CNS(=O)(=O)c2ccc3ccccc3c2)nn(-c2ccccc2)c1CC(C)C [Compound 16, N-[(5-Isobutyl-4-methyl-1-phenyl-1H-pyrazol-3-yl)methyl]naphthalene-2-sulfonamide] | – |
| 45.6 | CC(C)Cc1cc(CNS(=O)(=O)c2ccccc2)nn1-c1ccc(F)cc1 [Compound 20, N-[(5-Isobutyl-1-(4-fluorophenyl)-1H-pyrazol-3-yl)methyl]benzenesulfonamide] | – |
| 67.9 | CC(C)Cc1cc(CN2Cc3ccccc3S2(=O)=O)nn1-c1ccccc1 [Compound 28, 2-((5-Isobutyl-1-phenyl-1H-pyrazol-3-yl)methyl)-2,3-dihydrobenzo[d]isothiazole-1,1-dioxide] | – |
| – | CC(C)Cc1cc(CN2Cc3ccccc3S2(=O)=O)nn1C(C)(C)C [Compound 29, 2-[{1-(tert-Butyl)-5-isobutyl-1H-pyrazol-3-yl}methyl]-2,3-dihydro[d]isothiazole 1,1-dioxide] | Inhibition % α1G (10 μM) [1]: 60.62% |
| – | CC(C)Cc1cc(CN2Cc3ccccc3S2(=O)=O)nn1-c1ccc(F)cc1 [Compound 30, 2-[{1-(4-Fluorophenyl)-5-isobutyl-1H-pyrazol-3-yl}methyl]-2,3-dihydro[d]isothiazole 1,1-dioxide] | Inhibition % α1G (10 μM) [1]: 70.81% |
| – | CC(C)(C)n1nc(CN2Cc3ccccc3S2(=O)=O)cc1-c1ccc(C2CCCCC2)cc1 [Compound 36, 2-[{1-(tert-Butyl)-5-(4-cyclohexylphenyl)-1H-pyrazol-3-yl}methyl]-2,3-dihydro[d]isothiazole 1,1-dioxide] | Inhibition % α1G (10 μM) [1]: 45.62% |
